Assays:
CA-II = target: T1, CA-II (Homo sapiens, UniProt P00918); test: Inhibition of carbonic anhydrase II (4-nitrophenyl acetate hydrolysis, spectrophotometric at 400 nm); format: biochemical; details: purified human enzyme 30 nM; 9 mM Tris-HCl, 81 mM NaCl, pH 7.4, 25° C.; 10 min preincubation
T1 construct: purchased R&D Systems
Procedure: (§1) Compounds were tested for their ability to inhibit carbonic anhydrase isozymes II and IX in vitro. Purified human enzymes were from R&D Systems (Minneapolis, Minn.). The inhibition constants (Ki) for CA-II and CA-IX were determined by the method of Pocker and Stone. Initial rates of 4-nitrophenyl acetate hydrolysis catalyzed by the different carbonic anhydrase isozymes were measured spectrophotometrically at 400 nm. Solutions of substrate (1×10^−2 to 1×10^−6 M) were prepared in anhydrous acetonitrile. A molar extinction coefficient of 18,000 M^−1·cm^−1 was used for the 4-nitrophenolate formed by hydrolysis under the conditions of the experiment (9 mM Tris-HCl, 81 mM NaCl, pH 7.4, 25° C.). The enzyme concentrations were 100 nM for CA-IX and 30 nM for CA-II. Non-enzymatic hydrolysis rates, determined in the absence of added enzyme, were subtracted from the observed rates. […] Dilutions of inhibitor were added to enzyme solutions and preincubated for 10 min to allow for the formation of the E-I complex prior to the addition of substrate. Acetazolamide was included in all assays as positive controls

CA-IX = target: T2, CA-IX (Homo sapiens, UniProt Q16790); test: Inhibition of carbonic anhydrase IX (4-nitrophenyl acetate hydrolysis, spectrophotometric at 400 nm); format: biochemical; details: purified human enzyme 100 nM; 9 mM Tris-HCl, 81 mM NaCl, pH 7.4, 25° C.; 10 min preincubation
T2 construct: purchased R&D Systems
Procedure: as §1

IC50 (CA-II): 377 nM | IC50 (CA-IX): 77 nM
SMILES: NS(=O)(=O)c1ccc(NC(=S)N[C@@H](CC(=O)O)C(=O)N[C@@H](CC(=O)O)C(=O)NCc2ccc(I)cc2)cc1 [Comparative Example 1]

— US8211402B2, “CA-IX specific radiopharmaceuticals for the treatment and imaging of cancer” (Molecular Insight Pharmaceuticals, Inc., priority 2008, dated 2012)
